Like-named read-outs stand apart in the source and are kept apart here. Marks after values point to notes of the source that are not given here.
What was measured:
SW480/Coti cells = experiment: MTT viability assay, 72 h; assay type: cell-based, human; conditions: for IC50: Homo sapiens, SW480, 72 h, MTT
Method: (§1) In vitro tests were performed with human colorectal cancer SW480 cells (purchased from the American Type Culture Collection, Manassas, VA, USA), SW480/Tria, and the SW480/Coti cells, which are previously established sublines that are resistant to Triapine and COTI-2 [16], respectively. Additionally, small-cell lung carcinoma GLC-4 and its subline GLC-4/adr, which is a doxorubicin-resistant subline overexpressing ABCC1 (purchased from Dr. […], Groningen, The Netherlands), were used. All cells were maintained in a humidified 5% CO2 incubator at 37 °C and grown in minimal essential medium or RPMI-1640, respectively, supplemented with 10% fetal bovine serum (FBS). In order to maintain the resistant phenotype of GLC-4/adr cells, they were selected with doxorubicin (1152 nM) once a month. All cell lines were tested for mycoplasma contamination. For the cytotoxicity, cell viability, and proliferation studies, the 3-(4,5-dimethylthiazol-2-yl)-2,5-diphenyltetrazolium bromide (MTT) assay was utilized. Cells were seeded in 96-well plates at a density of 2 × 10^4 cells/well, with the exception of SW480/Tria, which was used at a density of 3 × 10^4 cells/well. After 24 h of recovery, cells were treated with the indicated concentration of drugs. For the drug combination experiments, verapamil and cyclosporine A (CSA) were used as ABCC1 modulators, and tetrathiomolybdate (TTM) was used as a copper chelator. The TSCs were dissolved in DMSO followed by subsequent dilutions in the medium in order to maintain a final DMSO concentration of <1%. After 72 h, the treatment solution was removed and replaced with 100 μL of MTT solution (EZ4U, Biomedica, Vienna, Austria), which was diluted 1:10 in the growth medium. A TECAN Infinite 200 Pro plate reader was used to measure the absorbance of the solution after 2-3 h incubation at 5% CO2 in an incubator at 37 °C. The anticancer activity was determined with GraphPad Prism software and indicated as IC50 values (half maximum inhibitory concentration).

GLC-4 cells [1] = experiment: MTT viability assay, 72 h; assay type: cell-based; conditions: Homo sapiens, GLC4
Method: as §1

[2] = test system: GLC-4/adr cells (ABCC1-overexpressing); experiment: MTT viability assay, 72 h; assay type: cell-based
Method: as §1

SW480 cells = experiment: Detection of paraptotic vesicles (phase contrast microscopy); assay type: cell-based, human; conditions: 24 h
Method: SW480 and SW480/Coti cells were seeded at a density of 2 × 10^4 per well in 24-well plates and left to recover for 24 h. This was followed by drug treatment at the indicated concentration for 24 h. Images were captured with phase contrast using a Nikon eclipse Ti-e fluorescence microscope and a DS Fi1c camera. Cells containing vesicles were counted in ImageJ and plotted in GraphPad Prism as the percentage of all cells.

[3] = test system: SW480 and SW480/Coti cells; experiment: HPLC-MS cell uptake measurements; assay type: cell-based, human; conditions: 10 µM, 3 h; for uptake lower in resistant SW480/Coti cells compared with parental SW480 cells: LC-MS (method not validated)
Method: Cells (1 × 10^6) were seeded in 25 cm^2 culture flasks and left to recover for 24 h at 37 °C and 5% CO2. The compounds were dissolved in DMSO (10 mM) and further diluted in the growth medium. The cells were treated in triplicate by replacing the growth medium with 5 mL of drug-containing medium (10 µM). After 3 h of incubation the cells were washed once with ice-cold PBS, and then collected by scraping into ice-cold PBS. The cell suspension was centrifuged for 5 min at 300× g and the supernatant was removed. Then, the cell pellets were lysed with three freeze/thaw cycles in liquid nitrogen/37 °C waterbath and re-suspended in 100 µL of water and 300 µL of cold acetonitrile (1:3 mixture). After 10 min of incubation on ice, the samples were centrifuged (15,080× g, 4 °C, and 10 min) and the supernatants were stored at −80 °C for HPLC-MS analysis. For the calibration curve, known concentrations of drugs were spiked into untreated cell extracts before adding acetonitrile. To normalize to the cell number, additional flasks were prepared (treated and untreated) and cells were collected by trypsinization and counted with counting chambers.
LC-MS analyses of the cell and media extracts were performed on a Vanquish Horizon UHPLC system (Thermo Fisher Scientific, Waltham, MA, USA) coupled to the ESI source of a timsTOF fleX mass spectrometer (Bruker Daltonics, Billerica, MA, USA). […] High-resolution ESI-MS spectra were recorded using the positive ion mode in the range of m/z 150–510 at a spectra rate of 2 Hz. […] For quantification, extracted ion chromatograms of m/z 249.1168 ± 0.0020 for COTI-NMe2 and of m/z 367.1699 ± 0.0020 for COTI-2 were calculated and the peak areas were determined using Bruker Compass Data Analysis 5.3.
In general, it must be mentioned that the LC-MS method for quantification of COTI-2 and COTI-NMe2 was not validated and that the deviation of the peak areas both within a batch and between batches was higher than expected. […]

SW480/Tria cells = test system: SW480/Tria cells; set-up: method as in PMID 33190481; conditions: 72 h, MTT; cited from earlier work
GLC-4 cells [4] = test system: GLC-4 cells; set-up: method as in PMID 33190481; conditions: 72 h, MTT; cited from earlier work
[5] = test system: GLC-4/adr cells (ABCC1-overexpressing); set-up: method as in PMID 33190481; conditions: cited from earlier work
[6] = set-up: method as in PMID 33190481; conditions: after formation of mixed-ligand GSH adduct; cited from earlier work

Compound | IC50 (SW480/Coti cells) [nM] | Relative Resistance SW480/Coti (SW480/Coti cells; IC50 of resistant subline divided by IC50 of parental SW480) | IC50 (GLC-4 cells [1]) [nM] | IC50 [2] [nM] | cells presenting paraptotic features (SW480 cells; 0.1 µM) [%] | cells presenting paraptotic features (SW480 cells; 1 µM) [%] | uptake lower in resistant SW480/Coti cells compared with parental SW480 cells [3] | lower intracellular drug levels compared with COTI-2 ([3]; both SW480 and SW480/Coti) | IC50 (SW480/Tria cells) [nM] | IC50 (GLC-4 cells [4]) [nM] | IC50 ([5]; 72 h, MTT) [nM] | Relative Resistance GLC-4/adr ([5]; IC50 of GLC-4/adr divided by IC50 of parental GLC-4) | redox reaction of the copper(II) complex with GSH [6]
CN(C)C(=S)NN=C1CCCc2cccnc21 (mixture of isomers) [COTI-NMe2, 2-(6,7-Dihydroquinolin-8(5H)-ylidene)-N^4,N^4-dimethylhydrazine-1-carbothioamide] | 50 ± 30 | 1.3 ^n.s. | 30 ± 30 | 60 ± 30 | 100 | 100 | no difference | 10–20 fold |  |  |  |  | 
S=C(N/N=C1\CCCc2cccnc21)N1CCN(c2ccccn2)CC1 [COTI-2, 4-(pyridine-2-yl)-N-([(8E)-5,6,7,8-tetrahydroquinolin-8-ylidene]amino)piperazine-1-carbothioamide] |  |  |  |  |  |  | ~ 40% |  | 410 ± 160 | 30 ± 10 | 480 ± 150 | 17.3 * | spectra were almost unchanged within 6 h
CN(C(=S)N/N=C1\CCCc2cccnc21)C1CCCCC1 [COTI-NMeCy, N-Cyclohexyl-2-(6,7-dihydroquinolin-8(5H)-ylidene)-N^4-methylhydrazine-1-carbothioamide] | 3980 ± 400 |  | 170 ± 100 | 540 ± 150 |  |  |  |  |  |  |  |  | 

Reference: PMC9497102, “Thiosemicarbazone Derivatives Developed to Overcome COTI-2 Resistance” (Cancers, 2022)
